The source of these data is patent US12514935B2, “Nanocarrier systems for imaging and delivery of active agents” (Kansas State University Research Foundation, priority 2018, dated 2026).

For data set [1], the system named is THP-1 cells. Kind of data set: In vitro immunogenicity cytokine release assay (ELISA). The format is cell-based, human. As to conditions: THP-1, 24 h incubation. The procedure: The immunogenicity of NKsomes in THP-1 cells were tested for its inflammatory response using a cytokine release assay. In brief, 7.5×10^5 THP-1 cells were seeded in 12-well plate and treated with isolated NKM (100 μg/mL), NKsomes (100 μg/mL), Free DOX (5 μg/mL), DOX@NKsomes (equivalent DOX load) and Bare liposomes (100 μg/mL) for 24 h incubation. Positive (LPS, 3 μg/mL) and negative controls were maintained for assessing pro-inflammatory cytokines in THP-1 cells. The treated cell culture supernatants were collected, centrifuged to remove cell debris, aliquot and stored at −20° C. until needed. Samples were thawed and used for analyzing pro-inflammatory cytokines, IL-1β (0.8 pg/ml), IL-6 (0.4 pg/mL) and TNF-α (0.7 pg/mL) using quantitative enzyme-linked immunosorbent assay KIT (ELISA) (R&D Systems, Inc. Minneapolis, MN) as recommended by the manufacturer. Sample […] was measured at 450 nm with the wavelength correction at 540 nm using Synergy H1 hybrid microplate reader (BioTek Instruments Inc. VT).
(In general: In an ELISA, binding on a coated surface is turned into a signal by an enzyme label.)

For data set [2], the system named is MCF-7 cells. Kind of data set: MTT assay. In kind it is cell-based, human. As to conditions: MCF-7, DOX 0.5-15 μM, 24 h. The procedure:
(§1) For MTT analysis, MCF-7 cells and NHost cells were treated with NKsomes with different DOX concentration along with free DOX and bare NKsomes. In brief, 2×10^4 cells per well in the respective medium were seeded in a 96-well plate and incubated for 24 h. While the cell reaches 80% confluence, the media was replaced with different DOX concentration of free DOX and NKsomes (0.5, 1.5, 3, 5, 10 and 15 uM) and incubated for additional 24 h. Control cells were maintained without DOX treatment. After incubation, MTT dye was added according to the manual instruction and further incubated for 3 h. The insoluble formation crystals were solubilized using DMSO, and the absorbance was read at 590 and 630 nm using microplate reader (BioTek, Synergy H1 Hybrid reader).
(In general: Formazan colour is commonly taken as a measure of viable cells.)

In a further data set the test system is NHost cells. Kind of data set: MTT assay. As to conditions: DOX 0.5-15 μM, 24 h. In kind it is cell-based, human. The procedure: as §1
The subject of data set [3] is MCF-7 cells. Kind of data set: Cell cycle analysis (propidium iodide, FACS). The format is cell-based, human. The settings on record: MCF-7, DOX 5 μM, 12 h. Here is the method:
(§2) The in vitro cytotoxicity of DOX@NKsome and the equivalent Free DOX were investigated against MCF-7 cells and NHost using a cell cycle analysis and an MTT assay. For cell cycle analysis, 1×10^6 cells were treated with 5 μM of Free DOX, equivalent DOX@NKsomes and bare NKsomes (equivalent to DOX-loaded) for 12 h. After incubation, cells were harvested, fixed in 70% ethanol overnight, washed with PBS twice and then followed propidium iodide staining. Further, the samples were analyzed in FACS Calibur for cell cycle analysis.

The test system of a further data set is NHost. Kind of data set: Cell cycle analysis (propidium iodide, FACS). In kind it is cell-based, human. As to conditions: DOX 5 μM, 12 h. The procedure:
as §2

The subject of data set [4] is MCF-7 induced solid tumor model. Kind of data set: In vivo anti-tumor therapy. On the set-up: species or system NU/NU nude mice. Here is the method: The anti-tumor efficacy of DOX@NKsomes was determined along with free DOX and unloaded NKsomes (aka “empty” NKsomes) using MCF-7 induced solid tumor model in immunodeficient NU/NU nude mice (n=3). In brief, 1×10^6 MCF-7 cells in PBS was injected subcutaneously into the hind rear flank region of the mice and the tumor growth is monitored periodically. When the tumor size reached 4-5 mm, animals received 4 cycles of drug treatment at Day 1, 4, 7 and 10 [DOX@NKsomes and free DOX (equivalent DOX concentration of 5 mg/kg)] up to 3 weeks. Control groups were also maintained without any treatment and bare NKsomes (10 mg/kg). During the study, body weight and tumor volume of the animal groups were monitored periodically to assess the therapeutic effects. The tumor volume (V) was determined using V=L×W2/2, where L=length of the tumor and W=width of the tumor. At the end of the study, animals were euthanized, collected tumors and measured its size and weight. Further, the tumor tissues were embedded in OCT, cryosectioned and subjected to immunofluorescence for the qualitative accumulation of NKsomes in tumor tissues by assessing the NKM protein marker (CD 56).

The test system of data set [5] is THP-1 cells. Kind of data set: In vitro cytokine release assay of BNc. In kind it is cell-based, human. As to conditions: THP-1, 100 μg/mL (LPS 3 μg/mL), 24 h. The procedure: The immunogenicity of the prepared BNc along with the bare PLGA NP were tested for its immunoregulatory potential using standard cytokine release assay. In brief, 8×10^5 THP-1 cells were seeded in a 12-well plate and treated with bare PLGA NP (100 μg/mL), NKM (100 μg/mL), Gd-lipid (100 μg/mL) and BNc (100 μg/mL) at 37° C. for 24 h. After 24 h incubation, cell culture supernatants were collected, centrifuged, removed cell debris and stored at −20° C. as small aliquots. For cytokine assay, samples were thawed and analyzed for pro-inflammatory cytokines, IL-1β (LOD: 1.7 pg/ml), IL-6 (LOD: 1.5 pg/mL), and TNF-α (LOD: 1 pg/mL) using Magnetic Human Cytokine Multiplex Assays Kit (R&D Systems, Inc. Minneapolis, MN) in Luminex MagPix® instrument (Millipore Inc.) as per the manufacturer recommendations. For positive control, cells were dosed with 3 μg/mL of lipopolysaccharide (LPS) for 24 h.

Turning to `COc1cccc2c1C(=O)c1c(O)c3c(c(O)c1C2=O)C[C@@](O)(C(=O)CO)C[C@@H]3O[C@H]1C[C@H](N)[C@H](O)[C@H](C)O1` [Free DOX, doxorubicin], in the data set on THP-1 cells [1], the “immunogenicity (pro-inflammatory cytokines)” value was “little elevation of IL-10 and TNF-α levels”. Moreover, the results for the “in vitro cytotoxicity (MTT)” value with MCF-7 cells [2] and in the data set with NHost cells were “Dose-dependent cytotoxicity” and “superior toxicity”, respectively. Also, the G1 fraction turned out to be 53% with MCF-7 cells [3] and 53.3% in the data set on NHost. For the same molecule, the G2 fraction in the data set on MCF-7 cells [3] is 25%; in the data set with NHost, 23.6%. In addition, the “tumor inhibition rate (IR %)” value in data set [4] (DOX 5 mg/kg or bare NKsomes 10 mg/kg, Day 1, 4, 7, 10, from tumor weight) stood at 63.69%. In data set [4] (end of study), this molecule registered an average tumor weight of 0.3 ± 0.04 g. For the same molecule, the tumor volume change entry in data set [4] (end of treatment period) was “significant reduction in tumor volume”.

On to lipopolysaccharide [LPS], for which the “immunogenicity (IL-1β, IL-6, TNF-α release)” value in the data set with THP-1 cells [5] was “elevated levels of IL-1β, IL-6, and TNF-α”.
